Reference: US7880007B2, “Bicyclic substituted phenyl piperidine modulators of muscarinic receptors” (Vertex Pharmaceuticals Incorporated, priority 2004, dated 2011)

Legend:
Assay type in all cases: cell-based
M1 muscarinic receptor = target: T1, M1 muscarinic receptor (Homo sapiens, UniProt P11229); assay: Functional mobilization of intracellular calcium (FLIPR), M1-CHO cells; details: for M1 Activity: M1-CHO cells, calcium mobilization (FLIPR)
T1 construct: expressed in transfected cells; host or cells: CHO (M1-CHO)
T1 sequence (P11229 1-460): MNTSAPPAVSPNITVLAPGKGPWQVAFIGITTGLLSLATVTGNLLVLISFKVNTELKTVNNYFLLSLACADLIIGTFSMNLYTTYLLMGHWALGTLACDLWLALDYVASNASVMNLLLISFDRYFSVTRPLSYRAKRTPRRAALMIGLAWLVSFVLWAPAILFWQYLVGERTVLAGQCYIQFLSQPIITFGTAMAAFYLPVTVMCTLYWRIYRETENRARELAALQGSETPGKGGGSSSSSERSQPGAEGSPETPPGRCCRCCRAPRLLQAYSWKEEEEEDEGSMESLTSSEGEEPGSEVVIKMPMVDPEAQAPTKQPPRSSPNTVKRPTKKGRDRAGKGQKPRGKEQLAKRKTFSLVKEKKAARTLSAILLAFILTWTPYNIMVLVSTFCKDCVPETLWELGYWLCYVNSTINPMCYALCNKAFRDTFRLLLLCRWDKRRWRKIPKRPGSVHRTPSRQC
Procedure, shortened: (§1)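 FLIPR fluorescence (ex 488, em 540 nm) recorded 60 sec after compound addition to dye-loaded CHO cells. Agonist mode: compound alone. Antagonist mode: 15 min compound pre-incubation, then carbachol at EC80, or co-application. Efficacy expressed as % of maximal carbachol response.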

M2 muscarinic receptor = target: T2, M2 muscarinic receptor (Homo sapiens, UniProt P08172); assay: Functional mobilization of intracellular calcium (FLIPR), M2-CHO cells; details: for M2 Activity: M2-CHO cells, calcium mobilization (FLIPR)
T2 construct: expressed in transfected cells; host or cells: CHO (M2-CHO)
T2 sequence (P08172 1-466): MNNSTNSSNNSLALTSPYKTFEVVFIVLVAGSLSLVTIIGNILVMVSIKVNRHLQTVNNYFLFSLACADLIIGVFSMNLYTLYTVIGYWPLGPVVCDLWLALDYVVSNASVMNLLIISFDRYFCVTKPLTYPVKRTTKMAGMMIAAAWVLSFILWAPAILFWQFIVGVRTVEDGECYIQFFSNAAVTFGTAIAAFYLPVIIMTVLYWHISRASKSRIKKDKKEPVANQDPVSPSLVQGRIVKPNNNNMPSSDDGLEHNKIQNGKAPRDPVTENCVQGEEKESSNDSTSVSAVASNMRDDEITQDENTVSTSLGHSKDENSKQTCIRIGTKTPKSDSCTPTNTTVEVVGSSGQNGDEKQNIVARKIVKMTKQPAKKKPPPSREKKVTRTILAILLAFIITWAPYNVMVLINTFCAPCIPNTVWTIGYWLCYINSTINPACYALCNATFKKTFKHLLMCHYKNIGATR
Procedure, shortened: as §1

M3 muscarinic receptor = target: T3, M3 muscarinic receptor (Homo sapiens, UniProt P20309); assay: Functional mobilization of intracellular calcium (FLIPR), M3-CHO cells; details: for M3 Activity: M3-CHO cells, calcium mobilization (FLIPR)
T3 construct: expressed in transfected cells; host or cells: CHO (M3-CHO)
Procedure, shortened: as §1

M4 muscarinic receptor = target: T4, M4 muscarinic receptor (Homo sapiens, UniProt P08173); assay: Functional mobilization of intracellular calcium (FLIPR), M4-CHO cells; details: for M4 Activity: M4-CHO cells, calcium mobilization (FLIPR)
T4 construct: expressed in transfected cells; host or cells: CHO (M4-CHO)
T4 sequence (P08173 1-479): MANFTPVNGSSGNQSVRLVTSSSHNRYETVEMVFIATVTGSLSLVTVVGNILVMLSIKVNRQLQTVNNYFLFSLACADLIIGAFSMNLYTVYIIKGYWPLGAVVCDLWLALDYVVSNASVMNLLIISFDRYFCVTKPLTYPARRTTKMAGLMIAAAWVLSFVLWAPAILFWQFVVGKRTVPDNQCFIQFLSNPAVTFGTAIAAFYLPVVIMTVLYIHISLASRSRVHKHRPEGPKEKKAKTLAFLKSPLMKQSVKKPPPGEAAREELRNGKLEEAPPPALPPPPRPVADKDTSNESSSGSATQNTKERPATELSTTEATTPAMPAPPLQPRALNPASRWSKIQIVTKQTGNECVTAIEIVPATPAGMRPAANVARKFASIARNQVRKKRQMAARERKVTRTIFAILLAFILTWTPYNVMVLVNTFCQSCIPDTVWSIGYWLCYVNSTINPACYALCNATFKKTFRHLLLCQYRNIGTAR
Procedure, shortened: as §1

[1] = 100% efficacy = maximum response obtained with the Carbachol control

T3 sequence (P20309 whole entry): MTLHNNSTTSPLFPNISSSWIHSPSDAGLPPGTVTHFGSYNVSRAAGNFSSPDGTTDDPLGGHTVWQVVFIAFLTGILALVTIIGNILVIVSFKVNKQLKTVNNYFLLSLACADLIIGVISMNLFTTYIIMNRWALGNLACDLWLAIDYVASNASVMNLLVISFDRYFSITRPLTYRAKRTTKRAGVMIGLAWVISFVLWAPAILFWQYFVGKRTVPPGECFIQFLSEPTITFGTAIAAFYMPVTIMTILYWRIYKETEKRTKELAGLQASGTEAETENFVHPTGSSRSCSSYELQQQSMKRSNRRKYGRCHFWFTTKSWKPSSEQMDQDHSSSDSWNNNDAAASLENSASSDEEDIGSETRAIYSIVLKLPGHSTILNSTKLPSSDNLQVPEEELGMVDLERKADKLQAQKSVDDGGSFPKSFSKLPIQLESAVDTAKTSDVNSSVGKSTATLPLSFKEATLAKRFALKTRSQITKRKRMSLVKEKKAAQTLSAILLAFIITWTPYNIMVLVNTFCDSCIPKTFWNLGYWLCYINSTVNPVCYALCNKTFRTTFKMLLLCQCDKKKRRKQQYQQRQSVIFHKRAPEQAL

Emax (M1 muscarinic receptor; [1])	Emax (M2 muscarinic receptor; [1])	Emax (M3 muscarinic receptor; [1])	Emax (M4 muscarinic receptor; [1])	Compound	M1 Activity (M1 muscarinic receptor)	M2 Activity (M2 muscarinic receptor)	M3 Activity (M3 muscarinic receptor)	M4 Activity (M4 muscarinic receptor)	M1 Efficacy (M1 muscarinic receptor; [1])	M2 Efficacy (M2 muscarinic receptor; [1])	M3 Efficacy (M3 muscarinic receptor; [1])	M4 Efficacy (M4 muscarinic receptor; [1])
25 to 100%	< 25%	< 25%	25 to 100%	Cc1ccccc1C1CCN(C2CC3CCC(C3)C2)CC1 (stereo not shown) [Compound 86]	++ (activity was measured to be from 1.0 μM to 5.0 μM)	+ (activity was measured to be greater than 5.0 μM)	+ (activity was measured to be greater than 5.0 μM)	+++ (activity was measured to be less than 1.0 μM)				
< 25%	< 25%	< 25%	< 25%	COCCNC(=O)c1ccc(-c2ccc(OC)c(C3CCN([C@H]4C[C@H]5CC[C@H]4C5)CC3)c2)cc1 [Compound 87]	+ (activity was measured to be greater than 5.0 μM)	+ (activity was measured to be greater than 5.0 μM)	+ (activity was measured to be greater than 5.0 μM)	+ (activity was measured to be greater than 5.0 μM)				
< 25%	< 25%	< 25%	< 25%	CCN(CC)C(=O)c1ccc(-c2ccc(OC)c(C3CCN([C@H]4C[C@H]5CC[C@H]4C5)CC3)c2)cc1 [Compound 98]	+ (activity was measured to be greater than 5.0 μM)	+ (activity was measured to be greater than 5.0 μM)	+ (activity was measured to be greater than 5.0 μM)	++ (activity was measured to be from 1.0 μM to 5.0 μM)				
< 25%	< 25%	< 25%	25 to 100%	CNC(=O)c1ccc(-c2ccc(OC)c(C3CCN(C4CC5CCC(C5)C4)CC3)c2)cc1Cl (stereo not shown) [Compound 100]	+ (activity was measured to be greater than 5.0 μM)	+ (activity was measured to be greater than 5.0 μM)	+ (activity was measured to be greater than 5.0 μM)	++ (activity was measured to be from 1.0 μM to 5.0 μM)				
< 25%	< 25%	< 25%	25 to 100%	COc1ccc(-c2ccc(S(C)(=O)=O)cc2)cc1C1CCN([C@H]2C[C@H]3CC[C@H]2C3)CC1 [Compound 102]	+ (activity was measured to be greater than 5.0 μM)	+ (activity was measured to be greater than 5.0 μM)	+ (activity was measured to be greater than 5.0 μM)	++ (activity was measured to be from 1.0 μM to 5.0 μM)				
< 25%	< 25%	< 25%	< 25%	COc1c(F)cc(F)cc1C1CCN([C@@H]2C[C@H]3CC[C@H]2C3)CC1 [Compound 103]	+ (activity was measured to be greater than 5.0 μM)	+ (activity was measured to be greater than 5.0 μM)	+ (activity was measured to be greater than 5.0 μM)	++ (activity was measured to be from 1.0 μM to 5.0 μM)				
< 25%	< 25%	< 25%	25 to 100%	COc1ccc(F)cc1C1CCN(CC2CC3CCC2CC3)CC1 (stereo not shown) [Compound 104]	+ (activity was measured to be greater than 5.0 μM)	+ (activity was measured to be greater than 5.0 μM)	+ (activity was measured to be greater than 5.0 μM)	++ (activity was measured to be from 1.0 μM to 5.0 μM)				

The remaining lines, values behind:

Compound	Emax (M1 muscarinic receptor; [1])	Emax (M2 muscarinic receptor; [1])	Emax (M3 muscarinic receptor; [1])	Emax (M4 muscarinic receptor; [1])	M1 Activity (M1 muscarinic receptor)	M2 Activity (M2 muscarinic receptor)	M3 Activity (M3 muscarinic receptor)	M4 Activity (M4 muscarinic receptor)	M1 Efficacy (M1 muscarinic receptor; [1])	M2 Efficacy (M2 muscarinic receptor; [1])	M3 Efficacy (M3 muscarinic receptor; [1])	M4 Efficacy (M4 muscarinic receptor; [1])
COc1ccccc1C1CCN([C@@H]2C[C@H]3CC[C@H]2C3)CC1 [Compound 85]	25 to 100%	< 25%	< 25%	25 to 100%	+ (activity was measured to be greater than 5.0 μM)	+ (activity was measured to be greater than 5.0 μM)	+ (activity was measured to be greater than 5.0 μM)	+++ (activity was measured to be less than 1.0 μM)				
Clc1ccccc1-c1ccccc1C1CCN([C@H]2C[C@H]3CC[C@H]2C3)CC1 [Compound 88]	< 25%	< 25%	< 25%	25 to 100%	+ (activity was measured to be greater than 5.0 μM)	+ (activity was measured to be greater than 5.0 μM)	+ (activity was measured to be greater than 5.0 μM)	++ (activity was measured to be from 1.0 μM to 5.0 μM)				
COc1ccccc1C1CCN(C2CCOCC2)CC1 [Compound 90]	25 to 100%	< 25%	< 25%	25 to 100%	+ (activity was measured to be greater than 5.0 μM)	+ (activity was measured to be greater than 5.0 μM)	+ (activity was measured to be greater than 5.0 μM)	+++ (activity was measured to be less than 1.0 μM)				
COc1ccc(-c2ccccc2C#N)cc1C1CCN([C@@H]2C[C@H]3CC[C@H]2C3)CC1 [Compound 92]	< 25%	< 25%	< 25%	< 25%	+ (activity was measured to be greater than 5.0 μM)	+ (activity was measured to be greater than 5.0 μM)	+ (activity was measured to be greater than 5.0 μM)	+ (activity was measured to be greater than 5.0 μM)				
Cc1ccccc1C1CCN([C@H]2C[C@H]3CC[C@H]2C3)CC1 [Compound 93]					++ (activity was measured to be from 1.0 μM to 5.0 μM)	+ (activity was measured to be greater than 5.0 μM)	+ (activity was measured to be greater than 5.0 μM)	+++ (activity was measured to be less than 1.0 μM)	++ (efficacy was calculated to be from 100% to 25%)	+ (efficacy was calculated to be less than 25%)	+ (efficacy was calculated to be less than 25%)	++ (efficacy was calculated to be from 100% to 25%)
CCOC(=O)N1CCC(CN2CCC(c3cc(C(F)(F)F)ccc3C)CC2)CC1 [Compound 94]	25 to 100%	25 to 100%	< 25%	25 to 100%	+++ (activity was measured to be less than 1.0 μM)	+++ (activity was measured to be less than 1.0 μM)	++ (activity was measured to be from 1.0 μM to 5.0 μM)	+++ (activity was measured to be less than 1.0 μM)				
COc1ccc(-c2cccc(C#N)c2)cc1C1CCN([C@H]2C[C@H]3CC[C@H]2C3)CC1 [Compound 97]	< 25%	< 25%	< 25%	25 to 100%	+ (activity was measured to be greater than 5.0 μM)	+ (activity was measured to be greater than 5.0 μM)	+ (activity was measured to be greater than 5.0 μM)	+ (activity was measured to be greater than 5.0 μM)				
